Earlier results on 3 molecules are cited in PMC11215356 (Haematologica, 2024).

Molecules are shown by their SMILES.

For one data set, the system named is CLL/SLL. Particulars: CLL/SLL patients, range over previous Syk inhibitor studies.
Another data set has as its system FL. Particulars: FL patients.
The test system of data set [1] is patients treated with fostamatinib.

Turning to `CCS(=O)(=O)N1CCN(c2ccc(Nc3ncc(C(N)=O)c(NC4CC4)n3)cc2)CC1` [cerdulatinib], in the data set with CLL/SLL, the ORR is recorded as 33-61% and the mPFS was 5.6-13.8 months.

`c1cn2cc(-c3ccc4cn[nH]c4c3)nc(Nc3ccc(N4CCOCC4)cc3)c2n1` [entospletinib]: in the data set on FL, the mPFS is recorded as 4.6 months. In the data set with CLL/SLL, the ORR is reported as 33-61% and the mPFS is on record as 5.6-13.8 months.

As to `COc1cc(Nc2ncc(F)c(Nc3ccc4c(n3)N(COP(=O)(O)O)C(=O)C(C)(C)O4)n2)cc(OC)c1OC` [fostamatinib], in the data set on FL, the mPFS is given as 5.7 months. For the same molecule, in data set [1], the “diarrhea as a DLT event” value is listed as 21% and the “diarrhea as one of the most common TRAE” value is given as 41%. In addition, in the data set on CLL/SLL, the ORR was 33-61% and the mPFS is listed as 5.6-13.8 months.
